Data set [1] has as its system HIV-1 virus strains (e.g. YU2). As to conditions: cited from earlier work; for percentage compared to wild-type CCR5, 89.6 / percentage compared to wild-type CCR5, ADA / percentage compared to wild-type CCR5, DH123 / percentage compared to wild-type CCR5, JF-RL / percentage compared to wild-type CCR5, YU2: CCR5 alanine mutant, work of others; for percentage compared to wild-type CCR5, 89.6: HIV-1 strain 89.6; for percentage compared to wild-type CCR5, ADA: HIV-1 strain ADA; for percentage compared to wild-type CCR5, DH123: HIV-1 strain DH123; for percentage compared to wild-type CCR5, JF-RL: HIV-1 strain JF-RL; for percentage compared to wild-type CCR5, YU2: HIV-1 strain YU2.

The target in data set [2] is HIV-1LAI envelope gp120 (Human immunodeficiency virus type 1 group M subtype B, UniProt P03377). It counts as binding. As to conditions: for percentage of binding of mutant polypeptide compared to wild-type polypeptide, gp120: CCR5 alanine mutant peptide.
The mark [3] stands for this setting: Panel B, 15-mers and 18-mers of CD4, empty control 575.
The mark [4] stands for this setting: Panel F, sequential alanine replacements of CD4 polypeptides, duplicate series, empty control 569.
Where [5] appears, read: Panel E, 9-mers and 12-mers of CD4, empty control 571.
The mark [6] stands for this setting: STRL33 18-mer scan, background subtracted, first of two count columns.
The mark [7] stands for this setting: STRL33 18-mer scan, background subtracted, second of two count columns.
[8] abbreviates: Panel C, 15-mers and 18-mers of CD4, empty control 556.
Setting [9] is: CXCR4 18-mer scan, background subtracted, empty control 0.
[10] abbreviates: CXCR4 18-mer scan, empty control 412.
The mark [11] stands for this setting: Panel A, 21-mers of CD4, empty control 515 and 617.

“And” between values parts separate entries of the source, which are not always exact repeats. Identical values can stand only once. Like-named read-outs stand apart in the source and are kept apart here.

On to “MDYQVSSPIYAINYYTSE: CCR5 (1-18) variant D11A”, for which, in data set [1], the “percentage compared to wild-type CCR5, 89.6” value (from here on “percentage … 89.6”) is 6%; the “percentage compared to wild-type CCR5, ADA” value (“percentage … ADA” for short) is recorded as 27%; the “percentage compared to wild-type CCR5, DH123” value (“percentage … DH123” for short) is 3%; the “percentage compared to wild-type CCR5, JF-RL” value (shortened to “percentage … JF-RL”) was 22%. The “percentage compared to wild-type CCR5, YU2” value (“percentage … YU2” below) in data set [1] is reported as 2%.
In the case of “Y3A: human CCR5 chemokine receptor with tyrosine 3 substituted by alanine, studied by others (cited 79% value)”, in data set [1], the “percentage … ADA” value is recorded as 79%; the “percentage … DH123” value is 42%; the “percentage … JF-RL” value was 82%. Also, the “affinity relative to a non-mutated CCR5 chemokine receptor” value in data set [1] (mutated CCR5, data extracted from the work of others) is 79%. In addition, in data set [2] (radiolabeled HIV-1LAI gp120), the “percentage of binding of mutant polypeptide compared to wild-type polypeptide, gp120” value was 51.4%. Also, the “ability to bind HIV-1LAI gp120 envelope protein in comparison to an equivalent wild-type peptide” value in data set [2] (CCR5 mutant polypeptide) came to 51.4%.
For the substance “MDYQVSSPIYDINYATSE: CCR5 (1-18) variant Y15A”, in data set [1], the “percentage … 89.6” value is reported as 1%; the “percentage … ADA” value is reported as 3%; the “percentage … DH123” value was 0%; the “percentage … JF-RL” value was 3%. For the same substance, the “percentage … YU2” value in data set [1] is recorded as 30%.
As for “MDYAVSSPIYDINYYTSE: CCR5 (1-18) variant Q4A”, in data set [1], the “percentage … 89.6” value was 67%; the “percentage … ADA” value was 132%; the “percentage … DH123” value was 105%; the “percentage … JF-RL” value is listed as 111%. Also, the “percentage … YU2” value in data set [1] is on record as 85%.
As for “MDYQVSSPIYDINAYTSE: CCR5 (1-18) variant Y14A”, in data set [1], the “percentage … 89.6” value is on record as 6%; the “percentage … ADA” value is recorded as 47%; the “percentage … DH123” value is 0%; the “percentage … JF-RL” value is reported as 25%. Besides, the “percentage … YU2” value in data set [1] is recorded as 12%.
“MDYQVSSPIADINYYTSE: CCR5 (1-18) variant Y10A”: in data set [1], the “percentage … 89.6” value was 10%; the “percentage … ADA” value is 50%; the “percentage … DH123” value is given as 3%; the “percentage … JF-RL” value is 26%. In data set [1], the “percentage … YU2” value was 2%.
Turning to “MDYQVSSPIYDINYYTSA: CCR5 (1-18) variant E18A”, in data set [1], the “percentage … 89.6” value is reported as 3%; the “percentage … ADA” value was 12%; the “percentage … DH123” value was 10%; the “percentage … JF-RL” value was 12%. Further, the “percentage … YU2” value in data set [1] is 45%.
Consider THLLQGQSLTLTLES, for which the “COUNTS of radiolabeled gp120 retained” value was 1874 counts in data set [2] (setting [3]); 7756 counts and 6545 counts and 4787 counts and 5947 counts in data set [2] (setting [4]); 10850 counts and 9756 counts in data set [2] (Panel G, alanine replacements and serial truncations (Z) of CD4 polypeptides, empty control 580).
Take LTGSGELWW: in data set [2] (setting [5]), the “COUNTS of radiolabeled gp120 retained” value is given as 550 counts.
Take EFKIDIVVL: the “COUNTS of radiolabeled gp120 retained” value in data set [2] (setting [5]) worked out at 665 counts.
As for KVTSLLIWVISLLVSLPQ, the results for the “radioactive counts recorded in twenty minutes” value (shortened to “radioactive counts recorded”) in data set [2] (setting [6]) and in data set [2] (setting [7]) were −39.5 counts and −118.5 counts, respectively.
Turning to “IFYHKLQSLTDVFLVNLP [STRL33 segment 57-74]”, the “radioactive counts recorded” value in data set [2] (setting [6]) came to 1275.5 counts; in data set [2] (setting [7]), 1256.5 counts.
For KKVEFKIDI, in data set [2] (setting [5]), the “COUNTS of radiolabeled gp120 retained” value is on record as 501 counts.
Regarding VEKLTGSGELWWQAE, in data set [2] (setting [8]), the “COUNTS of radiolabeled gp120 retained” value was found to be 735 counts.
As for IFANVSEADDRYICDRFY, the entries for the “radioactive counts recorded” value in data set [2] (setting [9]) and in data set [2] (setting [10]) were 267 counts and 679 counts, respectively.
In the case of “MDYQVSSPIYDINYYTSA [CCR5 (1-18) variant E18A]”, the “Relative % of Control” value in data set [2] (CCR5 (1-18) alanine variants, mean of two syntheses and binding experiments ± average deviation, wild-type = 100%) is recorded as 4 ± 2%. In data set [2] (radiolabeled HIV-1LAI gp120), the “percentage of binding of mutant polypeptide compared to wild-type polypeptide, gp120” value was found to be 4.1%.
In the case of SIVYKKEGE, in data set [2] (setting [5]), the “COUNTS of radiolabeled gp120 retained” value worked out at 566 counts.
With KEGEQVEFSFPLAFTVEKLTG, the “COUNTS of radiolabeled gp120 retained” value in data set [2] (setting [11]) is 972 counts.
For the substance AVVHAVFALKARTVTFGV, the “Counts per 20′ Average-background” value in data set [2] (CCR5 18-mer scan, radiolabeled HIV-1LAI gp120, background subtracted) is on record as 34 counts per 20′.
In the case of FPLAFTVEKLTGSGELWW, in data set [2] (setting [8]), the “COUNTS of radiolabeled gp120 retained” value worked out at 586 counts.
On to LAFTVEKLTGSG, for which the “COUNTS of radiolabeled gp120 retained” value in data set [2] (setting [5]) is listed as 608 counts.
Regarding GFSSFNDSSQEEEQAFLQ, the “Binding Results For Window Length (counts bound-background), 9” value in data set [2] (STRL33 amino terminus, 9-mer starting at the first residue of the printed sequence, background subtracted) came to 171 counts. For the same substance, the “Binding Results For Window Length (counts bound-background), 12” value in data set [2] (STRL33 amino terminus, 12-mer starting at the first residue of the printed sequence, background subtracted) came out at 480 counts. In data set [2] (STRL33 amino terminus, 15-mer starting at the first residue of the printed sequence, background subtracted), the “Binding Results For Window Length (counts bound-background), 15” value came out at 270 counts. Further, in data set [2] (STRL33 amino terminus, 18-mer starting at the first residue of the printed sequence, background subtracted), the “Binding Results For Window Length (counts bound-background), 18” value worked out at 1639 counts.
Take LTANSDTHLLQGQSLTLT: the “COUNTS of radiolabeled gp120 retained” value in data set [2] (setting [3]) is given as 528 counts.
On to VEFKIDIVVLAFQKASSIVYK, for which the “COUNTS of radiolabeled gp120 retained” value in data set [2] (setting [11]) is 725 counts.
In the case of AGLLLFIGLGIFFCVRCRHRR, the “number of radioactive decays (counts) counted” value in data set [2] (human CD4 21-mer scan, empty control 2075) is 2099 counts.
On to YGNVFNLDKLICGYHDEA, for which the “radioactive counts recorded” value in data set [2] (setting [6]) is −41.5 counts; in data set [2] (setting [7]) it was −20.5 counts.
For “LVISIFYHKLQSLTDVFL [STRL33 segment 53-70]”, in that order: 1620.5 counts and 1780.5 counts.
Consider THLLQGQSLTLTLEA, for which the “COUNTS of radiolabeled gp120 retained” value in data set [2] (setting [4]) is 5849 counts and 7984 counts.
As for PLAFTVEKL, the “COUNTS of radiolabeled gp120 retained” value in data set [2] (setting [5]) worked out at 597 counts.
For the substance KNLKIEDSDTYICEVEDQ, in data set [2] (setting [3]), the “COUNTS of radiolabeled gp120 retained” value was determined as 708 counts.
Take “VSEADDRYICDRFYPNDL [CXCR4 segment 177-194]”: the figures for the “radioactive counts recorded” value in data set [2] (setting [9]) and in data set [2] (setting [10]) were 157 counts and 569 counts, respectively.

(Values after patent US20030068615A1, “Polypeptides that bind HIV gp120 and related nucleic acids, antibodies, compositions, and methods of use” (priority 1999, published 2003).)
